Measurements: patent publication US11932872B2, “Dual chimeric antigen receptor-t cell which can be regulated, construction method therefor and use thereof” (NANJING ANJI BIOLOGICAL TECHNOLOGY CO., LTD, priority 2017, dated 2024)
Ends that are not written are not given here.

What was measured:
[1] = tested on: MSLN+K562 cells (mixed 1:1 with CEA+K562); assay: Time regulation of in vitro activity of sdCAR-T cells by exogenous switching molecules; type: cell-based, human; conditions: switching molecule added at 4 h, sampled every 2 h, effector:target 5:2
Method: This example verified that the killing activity of the sdCAR-T cells on tumor cells was subjected to time regulation by the switching molecules, and the selected target cells were MSLN single positive tumor cells and single positive tumor cells of negative control CEA. In the 14-hour test, the cytotoxicity of sdCAR-T cells was tested in real time with and without switching molecules. A total of four test groups were designed, each group had three parallel wells, and the design of test group was the same as that of Example 6.
1) Effector cells and mixed target cells (MSLN^+K562:CEA^+K562, 1:1) were co-incubated at a ratio of 5:2 in a 6-well plate, RPMI1640 (containing 10% FBS) was selected as a co-culture medium, cultured at 37° C. with 5% CO2.
2) 100 μL of cell suspension was taken every 2 h as the culturing begins at the 0 h.
3) Corresponding switching molecules were added at the 4 h.
4) Co-culturing for 10 h (that is, cell suspension was taken 6 times); after the culture, the ratio of MSLN and CEA tumor cells in each test group was detected by a flow cytometer, and then the survival rate of MSLN target cells was calculated.

[2] = tested on: MSLN+K562 cells (mixed equally with CEA+K562 cells, intraperitoneal); assay: Tumor killing test by sdCAR-T cells in vivo; design: species or system nude mice BALB/c; conditions: nude mice; for in vivo cytokine (IL-2 and IFNγ) release level / in vivo cytokine (IL-2 and IFNγ) release level compared with Conventional CAR-T cell group: abdominal cavity fluid supernatant; for in vivo cytotoxicity of sdCAR-T cells: intraperitoneal tumor cells, abdominal cavity fluid by flow cytometry
Method: Female nude mice BALB/c which were 6-8 weeks old were selected, MSLN^+K562 cells and CEA^+K562 cells were mixed equally and injected intraperitoneally into the nude mice, and then corresponding effector cells and switching molecules were added respectively. Refer to FIG. 19 for details of the in vivo test process. Six test groups were designed, with 6 nude mice in each group. Specific solutions are as follows:
group 1: effector cells are T cells (No CAR) and no switching molecules are added;
group 2: effector cells are the second generation of CAR-T cells (Conventional CAR) specific to MSLN, and no switching molecules are added;
group 3: effector cells are sdCAR-T cells and no switching molecules are added;
group 4: effector cells are sdCAR-T cells, and small molecule HM-3 is added;
group 5: effector cells are sdCAR-T cells and switching molecule FITC is added; and
After the test was completed, the nude mice were euthanized, and then 5 mL of pre-cooled PBS was injected into the abdominal cavities of the nude mice. After the abdominal cavities of the nude mice were rubbed many times, the abdominal cavity fluid was sucked out completely, and centrifuged at a centrifugal force of 800 g for 8 min. The cells were collected, and the percentage of the two tumor cells was measured by flow cytometry, and then the in vivo activity of sdCAR-T cells could be calculated. In addition, the above centrifuged supernatant was collected to measure the release levels of cytokines IL-2 and IFNγ respectively.

[3] = tested on: MSLN+K562 target cells (mixed 1:1 with CEA+K562); assay: Cytotoxicity test of sdCAR-T cells in vitro; type: cell-based, human; conditions: for percentage content of homologous target cells MSLN+K562 (green fluorescence): fluorescence detection, versus beginning of the test
Method: The cytotoxicity of sdCAR-T cells was determined according to the survival rate of target cells (MSLN^+K562). The selected target cells were equal mixed cells of MSLN and CEA. […] The survival rate of MSLN target cells in each test group was calculated according to the following formula, and then the tumor killing ability of the constructed CARs-T cells in vitro could be analyzed.
1) Effector cells and mixed target cells (MSLN^+K562:CEA^+K562, 1:1) were co-incubated at a ratio of 5:2 in a U-shaped 96-well plate, RPMI1640 (10% FBS) was selected as a co-culture medium, and corresponding switching molecule s were added.
2) Culturing at 37° C. for 22 h with 5% CO2.
3) The ratio of MSLN and CEA tumor cells in each test group was detected by a flow cytometer, and then the survival rate of MSLN target cells was calculated.

K562 tumor cells = assay: Killing curve of K562 tumor cells by puromycin / hygromycin; type: cell-based; conditions: 5 consecutive days
Method: 1) Low-generation cell strains were resuscitated from liquid nitrogen, and subjected to conventional culture and passaged 5 times, then the cell state was adjusted to a logarithmic growth period.
2) A new 24-well plate was prepared, 50000 K562 tumor cells were inoculated per well for 7 wells in total, and 500 μL of complete culture medium (RPMI1640, 10% FBS) was added per well. The well plate was placed in an incubator at 37° C. with 5% CO2 and cultured overnight.
3) The cell well plate was taken out from the incubator, one well was left free of puromycin, and puromycin with final concentrations of 0.5, 1, 2, 4, and 8 μg/mL were added to the remaining wells respectively.
4) The well plate was placed in an incubator at 37° C. with 5% CO2 for continuous cultivation. The state of cells in the well plate was observed under a microscope every day for 5 consecutive days. And the minimum concentration that can completely kill all cells on the fifth day was taken as the puromycin concentration for subsequent stable cell strain screening.
The method is the same as that of Example 3.4. The concentration gradient of the hygromycin was set to 50, 100, 200, 400 and 800 μg/mL respectively, and the concentration of the hygromycin was finally selected to be 100 μg/mL through the determination of the killing curve.

| Molecule | cytotoxicity of sdCAR-T cells after addition of switching molecule [1] | in vivo cytokine (IL-2 and IFNγ) release level [2] | in vivo cytokine (IL-2 and IFNγ) release level compared with Conventional CAR-T cell group [2] | in vivo cytotoxicity of sdCAR-T cells [2] | survival rate of MSLN tumor cells ([3]; effector:mixed target cells 5:2, 22 h, flow cytometry) | percentage content of homologous target cells MSLN+K562 (green fluorescence) [3] | minimum concentration that can completely kill all cells on the fifth day (concentration selected from the killing curve) (K562 tumor cells) | in vivo cytotoxicity of FHBM treatment group compared with FITC treatment group ([2]; sdCAR-T cells plus switching molecule) |
| --- | --- | --- | --- | --- | --- | --- | --- | --- |
| O=C1OC2(c3ccc(O)cc3Oc3cc(O)ccc32)c2ccc(N=C=S)cc21 [FITC] | significant cytotoxicity | release significant cytokine levels | only half of the level | significant cytotoxicity | about 30.98% | significantly lower than that at the beginning of the test |  |  |
| COc1ccc(C[C@H](N)C(=O)N[C@H]2[C@@H](O)[C@H](n3cnc4c(N(C)C)ncnc43)O[C@@H]2CO)cc1 [puromycin] |  |  |  |  |  |  | 1 µg/mL |  |
| FHBM: FITC and polypeptide HM-3 coupled to form a bifunctional small molecule; exogenous switching molecule for sdCAR-T cells (IVRRADRAAVPGGGGRGD; also: FITC coupled to HM-3, site not given here) | significant cytotoxicity | release significant cytokine levels | only half of the level | significant cytotoxicity |  | significantly lower than that at the beginning of the test |  | better than that of the FITC treatment group |
